Laboratory results as given in publication PMC3866251, “The Sodium/Proline Transporter PutP of Helicobacter pylori” (PLoS ONE, 2013).

Molecular target: T1, HpPutP (Helicobacter pylori, UniProt B6JPE8)
T1 construct: gene putP; full-length, C-terminal 6His tag (FLAG-6His for Western blots), expressed in E. coli WG170 (PutP-A-), intact cells
Test: inhibition of […]-L-proline uptake into E. coli WG170 expressing HpPutP, Dixon plot
Type: cell-based

T1 sequence (B6JPE8 1-496): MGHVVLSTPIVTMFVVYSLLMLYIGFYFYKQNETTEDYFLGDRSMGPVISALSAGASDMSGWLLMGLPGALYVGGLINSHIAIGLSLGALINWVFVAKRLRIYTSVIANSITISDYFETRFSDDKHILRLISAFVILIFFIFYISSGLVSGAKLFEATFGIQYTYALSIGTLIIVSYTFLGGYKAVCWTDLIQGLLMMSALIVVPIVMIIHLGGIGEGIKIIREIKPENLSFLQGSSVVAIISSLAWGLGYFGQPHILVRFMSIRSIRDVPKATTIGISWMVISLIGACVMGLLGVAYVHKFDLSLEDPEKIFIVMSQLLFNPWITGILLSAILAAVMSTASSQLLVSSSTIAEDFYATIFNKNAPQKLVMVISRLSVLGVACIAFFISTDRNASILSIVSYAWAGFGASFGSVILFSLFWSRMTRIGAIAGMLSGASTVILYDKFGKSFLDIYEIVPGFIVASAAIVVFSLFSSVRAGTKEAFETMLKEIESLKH

SMILES | Ki [µM]
O=C(O)C1C=CCN1 (racemic) [DHP, 3,4-dehydro-D,L-proline] | 5.7 ± 0.9
O=C(O)[C@@H]1CCN1 [AZC, L-azetidine-2-carboxylic acid] | 44.2 ± 6.3
